This note sets out measurements from patent US12577702B2, “Oligonucleotide encoded chemical libraries, related systems, devices, and methods for detecting, analyzing, quantifying, and testing biologics/genetics” (Plexium, Inc., priority 2020, dated 2026).

This test concerns the target Cathepsin-D protease (Homo sapiens, UniProt P07339). The test can be described thus: Protease inhibition assay in picowells with compound photo-released from beads. In kind it is biochemical. Conditions: compound released from 10 μm TentaGel bead by UV (365 nm, 77 J/cm^2) to approximately 13 μM; incubated 30 min, 37° C.; λex=480 nm, λem=525 nm.

Cathepsin-D protease, sequence (P07339 65-412): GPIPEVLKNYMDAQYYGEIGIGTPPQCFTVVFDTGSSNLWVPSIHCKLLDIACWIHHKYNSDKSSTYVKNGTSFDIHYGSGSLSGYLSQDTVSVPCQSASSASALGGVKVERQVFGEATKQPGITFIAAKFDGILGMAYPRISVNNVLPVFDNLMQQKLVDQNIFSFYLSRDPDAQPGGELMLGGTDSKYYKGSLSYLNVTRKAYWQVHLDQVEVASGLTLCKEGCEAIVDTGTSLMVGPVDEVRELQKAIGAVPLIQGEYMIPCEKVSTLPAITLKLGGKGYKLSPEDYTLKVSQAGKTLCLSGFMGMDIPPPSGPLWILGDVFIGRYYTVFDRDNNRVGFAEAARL
Source text: Reagents were placed into wells at 4 degrees C. Ultraviolet light at 365 nm was used to cleave the fluorophore from the bead, thereby releasing the fluorophore and separating it from the quencher. […] This setup with bead-bound pepstatin-A and the aspartyl protease can serve as a positive control.
This bead population was introduced into picowells, then buffer exchanged into a protease inhibition assay, including Cathepsin-D protease and Peptide Q-Fluor substrate (λex=480 nm, λem=525 nm). Wells were encapsulated by air, and entire slide exposed to UV (365 nm, 77 J/cm^2), cleaving the photolabile linker, releasing the compound to reach approximately 13 μM. The flowcell was incubated (30 min, 37° C.).
Greater fluorescence means that the enzyme is more catalytically active. […] Images were captured following UV release and Cathepsin-D assay incubation (λex=480 nm, λem=525 nm). Wells containing positive control beads could be identified spectrally by Cy5 fluorophore (λex=645 nm, λem=665 nm, orange false color).

For the compound `CC(C)[C@H](NC(=O)OCC1c2ccccc2-c2ccccc21)C(=O)O` [negative control beads, Fmoc-Valine], the “Cathepsin-D inhibition (fluorescence of Peptide Q-Fluor substrate in well)” value is reported as “no Cathepsin-D inhibition”.
